Like-named read-outs stand apart in the source and are kept apart here.
Tests used:
[1] = molecular target: T1, CDK5 (Homo sapiens, UniProt Q00535); experiment: CDKACT5-Cy5 fluorescent kinase activity biosensor with U87 cell extract; residual activity at […], IC50 not fittable; format: cell-based; settings: U-87 MG
[2] = molecular target: T1, CDK5; experiment: biochemical
[3] = molecular target: T1, CDK5; experiment: biochemical; remark: listed apart in the source

T1 sequence (Q00535 whole entry): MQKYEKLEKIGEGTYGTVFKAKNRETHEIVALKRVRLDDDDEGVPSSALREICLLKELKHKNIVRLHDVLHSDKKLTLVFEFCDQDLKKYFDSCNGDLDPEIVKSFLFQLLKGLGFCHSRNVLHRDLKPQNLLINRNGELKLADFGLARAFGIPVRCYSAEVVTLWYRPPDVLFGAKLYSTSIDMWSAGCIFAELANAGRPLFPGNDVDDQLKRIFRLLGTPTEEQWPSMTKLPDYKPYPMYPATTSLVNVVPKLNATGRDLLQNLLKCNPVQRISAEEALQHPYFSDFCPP
T1 sequence (Q15078 2-307 partner): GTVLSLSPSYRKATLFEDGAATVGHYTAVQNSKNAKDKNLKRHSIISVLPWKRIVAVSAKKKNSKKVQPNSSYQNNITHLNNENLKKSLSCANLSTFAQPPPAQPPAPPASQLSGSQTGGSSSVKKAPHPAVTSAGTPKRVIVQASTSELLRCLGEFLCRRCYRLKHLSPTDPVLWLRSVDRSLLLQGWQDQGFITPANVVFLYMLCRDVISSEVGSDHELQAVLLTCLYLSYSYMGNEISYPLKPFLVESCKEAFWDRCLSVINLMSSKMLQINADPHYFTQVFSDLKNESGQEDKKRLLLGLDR

SMILES: Nc1ccc2[nH]c(SCc3nc4ccccc4c(=O)n3-c3cccc(C(F)(F)F)c3)nc2c1 [5a, JMV5798]
- activity at 100 µM [1]: 40.2 ± 2.4%

SMILES: Nc1ccc2[nH]c(SCc3nc4ccccc4c(=O)n3-c3ccccc3)nc2c1 [5d, JMV5800]
- IC50 [2]: 8.29 ± 3.56 µM

SMILES: Nc1ccc2[nH]c(SCc3nc4ccccc4c(=O)n3-c3ccccc3Br)nc2c1 [5j, JMV5886]
- IC50 [3]: 24.4 ± 32.5 µM

SMILES: Nc1ccc2[nH]c(SCc3nc4ccccc4c(=O)n3-c3ccc(Br)cc3)nc2c1 [5l, JMV5889]
- IC50 [3]: 28.7 ± 51.2 µM

SMILES: Nc1ccc2[nH]c(SCc3nc4ccccc4c(=O)n3-c3cccc(Cl)c3)nc2c1 [5m, JMV5884]
- IC50 [2]: 7.6 ± 3.8 µM

SMILES: Cc1ccc2c(=O)n(-c3ccccc3)c(CSc3nc4cc(N)ccc4[nH]3)nc2c1 [5p, JMV5735]
- IC50 [3]: 9.35 ± 11.1 µM

Reference: publication PMC7466635, “Identification of Quinazolinone Analogs Targeting CDK5 Kinase Activity and Glioblastoma Cell Proliferation” (Frontiers in Chemistry, 2020)
